Reference: ChEMBL document CHEMBL5500345, “Discovery of a novel homoisoflavonoid derivative 5g for anti-osteoclastic bone loss via targeting FGFR1” (Eur J Med Chem, 2024)
Active and inactive are the calls of the source. The rule behind the calls is not given here.

How the values were obtained:
BMDM [1] = assay: Anti-osteoclastogenic activity in C57/BL6 mouse BMDM cells assessed as inhibition of RANKL-induced osteoclast differentiation at 10 uM incubated for 4 days in presence of M-CSF by TRAP staining based microscopic analysis relative to control; assay type: functional; details: 96 h, time 4 day
BMDM [2] = assay: Anti-osteoclastogenic activity in C57/BL6 mouse BMDM cells assessed as inhibition of RANKL-induced osteoclast differentiation at 5 uM incubated for 4 days in presence of M-CSF by TRAP staining based microscopic analysis relative to control; assay type: functional; details: 96 h, time 4 day
BMDM [3] = assay: Anti-osteoclastogenic activity in M-CSF/RANKL-induced C57/BL6 mouse BMDM cells assessed as downregulation of MMP9 mRNA expression at 10 uM incubated upto 3 days by qRT-PCR analysis; assay type: functional, cell-based; details: time <= 3.0 day
BMDM [4] = assay: Anti-osteoclastogenic activity in C57/BL6 mouse BMDM cells assessed as inhibition of RANKL-induced bone resorption number incubated for 6 days by fluorescein amine-labeled calcium phosphate based fluorescence spectramax analysis; assay type: functional, cell-based; details: time 6.0 day
Mus musculus [5] = assay: Anti-osteoporosis activity in OVX-induced osteoporosis C57BL/6 mouse model assessed as increase in bone mineral density in femur at 30 mg/kg,po administrated twice daily for 4 weeks by micro-CT scanning analysis; assay type: functional, organism-based
Mus musculus [6] = assay: Anti-osteoporosis activity in OVX-induced osteoporosis C57BL/6 mouse model assessed as increase in bone volume in femur at 30 mg/kg,po administrated twice daily for 4 weeks by micro-CT scanning analysis; assay type: functional, organism-based
BMDM [7] = assay: Anti-osteoclastogenic activity in M-CSF/RANKL-induced C57/BL6 mouse BMDM cells assessed as downregulation of FGFR1 expression at 10 uM incubated upto 3 days by immunoblotting analysis; assay type: functional, cell-based; details: time <= 3.0 day
BMDM [8] = assay: Anti-osteoclastogenic activity in M-CSF/RANKL-induced C57/BL6 mouse BMDM cells assessed as downregulation of IkappaBalpha expression at 10 uM incubated upto 3 days by immunoblotting analysis; assay type: functional, cell-based; details: time <= 3.0 day
Mus musculus [9] = assay: Anti-osteoporosis activity in OVX-induced osteoporosis C57BL/6 mouse model assessed as prevention of bone loss in femur at 15 mg/kg,po administrated twice daily for 4 weeks by micro-CT scanning analysis; assay type: functional, organism-based
BMDM [10] = assay: Anti-osteoclastogenic activity in C57/BL6 mouse BMDM cells assessed as inhibition of RANKL-induced bone resorption pit incubated for 6 days by fluorescein amine-labeled calcium phosphate based fluorescence spectramax analysis; assay type: functional, cell-based; details: time 6.0 day
Pre-Osteoblast [11] = assay: Induction of osteogenesis in mouse Pre-Osteoblast cells assessed as effect on ALP mRNA expression by qRT-PCR analysis; assay type: functional, cell-based
Mus musculus [12] = assay: Anti-osteoporosis activity in OVX-induced osteoporosis C57BL/6 mouse model assessed as increase in bone mineral density in femur at 15 mg/kg,po administrated twice daily for 4 weeks by micro-CT scanning analysis; assay type: functional, organism-based
Pre-Osteoblast [13] = assay: Induction of osteogenesis in mouse Pre-Osteoblast cells assessed as effect on OSX mRNA expression by qRT-PCR analysis; assay type: functional, cell-based
Mus musculus [14] = assay: Anti-osteoporosis activity in OVX-induced osteoporosis C57BL/6 mouse model assessed as prevention of bone loss in femur at 30 mg/kg,po administrated twice daily for 4 weeks by micro-CT scanning analysis; assay type: functional, organism-based
[15] = Toxicity in OVX-induced osteoporosis C57BL/6 mouse model assessed as change in body weight at 30 mg/kg,po administrated twice daily for 4 weeks; assay type: organism-based; details: in vivo, 672 h
BMDM [16] = assay: Anti-osteoclastogenic activity in M-CSF/RANKL-induced C57/BL6 mouse BMDM cells assessed as downregulation of ERK1 expression at 10 uM incubated upto 3 days by immunoblotting analysis; assay type: functional, cell-based; details: time <= 3.0 day
BMDM [17] = assay: Cytotoxicity against C57/BL6 mouse BMDM cells at < 20 uM incubated for 48 hrs by EZ-Cytox cell viability assay; assay type: toxicity, cell-based
Pre-Osteoblast [18] = assay: Induction of osteogenesis in mouse Pre-Osteoblast cells assessed as increase in ALP expression at < 20 uM incubated for 9 days by BCIP/NBT staining based analysis; assay type: functional, cell-based; details: time 9.0 day
BMDM [19] = assay: Anti-osteoclastogenic activity in M-CSF/RANKL-induced C57/BL6 mouse BMDM cells assessed as downregulation of NFATc1 mRNA expression at 10 uM incubated upto 3 days by qRT-PCR analysis; assay type: functional, cell-based; details: time <= 3.0 day
BMDM [20] = assay: Anti-osteoclastogenic activity in C57/BL6 mouse BMDM cells assessed as inhibition of RANKL-induced osteoclast differentiation by measuring number of TRAP-positive cells incubated for 4 days in presence of M-CSF by TRAP staining based microscopic analysis; assay type: functional, cell-based; details: 96 h
Mus musculus [21] = assay: Anti-osteoporosis activity in OVX-induced osteoporosis C57BL/6 mouse model assessed as increase in bone volume in femur at 15 mg/kg,po administrated twice daily for 4 weeks by micro-CT scanning analysis; assay type: functional, organism-based
BMDM [22] = assay: Anti-osteoclastogenic activity in M-CSF/RANKL-induced C57/BL6 mouse BMDM cells assessed as downregulation of NF-kappaB expression at 10 uM incubated upto 3 days by immunoblotting analysis; assay type: functional, cell-based; details: time <= 3.0 day
BMDM [23] = assay: Anti-osteoclastogenic activity in M-CSF/RANKL-induced C57/BL6 mouse BMDM cells assessed as downregulation of Dc-stamp mRNA expression at 10 uM incubated upto 3 days by qRT-PCR analysis; assay type: functional, cell-based; details: time <= 3.0 day
BMDM [24] = assay: Anti-osteoclastogenic activity in M-CSF/RANKL-induced C57/BL6 mouse BMDM cells assessed as downregulation of c-FOS mRNA expression at 10 uM incubated upto 3 days by qRT-PCR analysis; assay type: functional, cell-based; details: time <= 3.0 day
BMDM [25] = assay: Anti-osteoclastogenic activity in M-CSF/RANKL-induced C57/BL6 mouse BMDM cells assessed as downregulation of ACP5 mRNA expression at 10 uM incubated upto 3 days by qRT-PCR analysis; assay type: functional, cell-based; details: time <= 3.0 day
BMDM [26] = assay: Anti-osteoclastogenic activity in M-CSF/RANKL-induced C57/BL6 mouse BMDM cells assessed as downregulation of ERK2 expression at 10 uM incubated upto 3 days by immunoblotting analysis; assay type: functional, cell-based; details: time <= 3.0 day
Pre-Osteoblast [27] = assay: Induction of osteogenesis in mouse Pre-Osteoblast cells assessed as effect on RUNX2 mRNA expression by qRT-PCR analysis; assay type: functional, cell-based
BMDM [28] = assay: Anti-osteoclastogenic activity in M-CSF/RANKL-induced C57/BL6 mouse BMDM cells assessed as downregulation of ATP6V0D2 mRNA expression at 10 uM incubated upto 3 days by qRT-PCR analysis; assay type: functional, cell-based; details: time <= 3.0 day
BMDM [29] = assay: Anti-osteoclastogenic activity in C57/BL6 mouse BMDM cells assessed as inhibition of RANKL-induced F-actin belt formation incubated for 6 days by F-actin ring assay; assay type: functional, cell-based; details: time 6.0 day
BMDM [30] = assay: Anti-osteoclastogenic activity in C57/BL6 mouse BMDM cells assessed as inhibition of RANKL-induced osteoclast formation at 10 uM incubated for 4 days in presence of M-CSF by TRAP staining based microscopic analysis; assay type: functional, cell-based; details: time 4.0 day
[31] = Cytotoxicity against BMP2-induced mouse Pre-Osteoblast cells at < 20 uM incubated for 48 hrs by EZ-Cytox cell viability assay; assay type: toxicity, cell-based
BMDM [32] = assay: Anti-osteoclastogenic activity in M-CSF/RANKL-induced C57/BL6 mouse BMDM cells assessed as downregulation of CTSK mRNA expression at 10 uM incubated upto 3 days by qRT-PCR analysis; assay type: functional, cell-based; details: time <= 3.0 day
BMDM [33] = assay: Anti-osteoclastogenic activity in M-CSF/RANKL-induced C57/BL6 mouse BMDM cells assessed as downregulation of CTSK protein expression at 10 uM incubated upto 3 days by Western blotting analysis; assay type: functional, cell-based; details: time <= 3.0 day

Cc1ccc(-c2oc3ccc(C)cc3c(=O)c2Cc2cc(C)ccc2O)cc1
inhibition at 10 µM (BMDM [1]): 23.8% | inhibition at 5 µM (BMDM [2]): 22.3%

Cc1ccc(S(=O)(=O)Oc2ccccc2Cc2c(-c3ccccc3)oc3ccccc3c2=O)cc1
inhibition at 10 µM (BMDM [1]): 68.1% | inhibition at 5 µM (BMDM [2]): 28.9%

COc1ccc(-c2oc3ccccc3c(=O)c2Cc2ccccc2O)cc1
Activity (BMDM [3]): Active | Activity (BMDM [4]): Dose-Dependent Effect | Activity (Mus musculus [5]): Active | Activity (Mus musculus [6]): Active | Activity (BMDM [7]): Active | Activity (BMDM [8]): Active | Activity (Mus musculus [9]): Active | Activity (BMDM [10]): Dose-Dependent Effect | Activity (Pre-Osteoblast [11]): inactive | Activity (Mus musculus [12]): Active | Activity (Pre-Osteoblast [13]): inactive | inhibition at 10 µM (BMDM [1]): 79% | Activity (Mus musculus [14]): Active | Activity [15]: Non-Toxic | Activity (BMDM [16]): Active | Activity (BMDM [17]): Non-Toxic | Activity (Pre-Osteoblast [18]): inactive | inhibition at 5 µM (BMDM [2]): 56.4% | Activity (BMDM [19]): Active | IC50 (BMDM [20]): 2.39 µM | Activity (Mus musculus [21]): Active | Activity (BMDM [22]): Active | Activity (BMDM [23]): Active | Activity (BMDM [24]): Active | Activity (BMDM [25]): Active | Activity (BMDM [26]): Active | Activity (Pre-Osteoblast [27]): inactive | Activity (BMDM [28]): Active | Activity (BMDM [29]): Dose-Dependent Effect | Activity (BMDM [30]): Active | Activity [31]: Non-Toxic | Activity (BMDM [32]): Active | Activity (BMDM [33]): Active

Cc1ccc(-c2oc3ccccc3c(=O)c2Cc2ccccc2O)cc1
inhibition at 10 µM (BMDM [1]): 37.8% | inhibition at 5 µM (BMDM [2]): 34.4%

CC(C)(C)c1ccc(Oc2ccccc2Cc2c(-c3ccccc3)oc3ccccc3c2=O)cc1
inhibition at 10 µM (BMDM [1]): 12% | inhibition at 5 µM (BMDM [2]): 11.1%

COc1ccc(O)c(Cc2c(-c3ccccc3)oc3ccc(OC)cc3c2=O)c1
inhibition at 10 µM (BMDM [1]): 16.8% | inhibition at 5 µM (BMDM [2]): 17.6%

O=c1c(Cc2cccc(F)c2)c(-c2ccccc2)oc2ccccc12
inhibition at 10 µM (BMDM [1]): 36.3% | inhibition at 5 µM (BMDM [2]): 22%

CCOc1cccc(Cc2c(-c3ccccc3)oc3ccccc3c2=O)c1O
inhibition at 10 µM (BMDM [1]): 25% | inhibition at 5 µM (BMDM [2]): 1.08%

O=c1c(Cc2ccccc2O)c(-c2ccc(Cl)cc2)oc2ccccc12
inhibition at 10 µM (BMDM [1]): 36.7% | inhibition at 5 µM (BMDM [2]): 33%

CCCCOc1ccccc1Cc1c(-c2ccccc2)oc2ccccc2c1=O
inhibition at 10 µM (BMDM [1]): 44.7% | inhibition at 5 µM (BMDM [2]): 19%

O=c1c(Cc2cc(F)ccc2O)c(-c2ccccc2)oc2ccc(F)cc12
inhibition at 10 µM (BMDM [1]): 37.6% | inhibition at 5 µM (BMDM [2]): 40%

O=c1cc(-c2ccccc2)oc2ccccc12 [FLAVONE]
inhibition at 10 µM (BMDM [1]): 35.4% | inhibition at 5 µM (BMDM [2]): 7.11%

O=c1c(Cc2cc(Cl)cc(Cl)c2O)c(-c2ccccc2)oc2ccccc12
inhibition at 10 µM (BMDM [1]): 14.7% | inhibition at 5 µM (BMDM [2]): 2.94%

O=c1c(Cc2ccccc2O)coc2ccccc12
inhibition at 10 µM (BMDM [1]): 46.7% | inhibition at 5 µM (BMDM [2]): 12.8%

O=c1c(Cc2cc(-c3ccccc3)ccc2O)c(-c2ccccc2)oc2ccccc12
inhibition at 10 µM (BMDM [1]): 23.7% | inhibition at 5 µM (BMDM [2]): 25.6%

Cc1ccc(O)c(Cc2c(-c3ccccc3)oc3ccccc3c2=O)c1
inhibition at 10 µM (BMDM [1]): 32.5% | inhibition at 5 µM (BMDM [2]): 21.5%

O=c1c(Cc2ccccc2O)c(-c2ccccc2)oc2ccccc12
inhibition at 10 µM (BMDM [1]): 60.4% | inhibition at 5 µM (BMDM [2]): 31.5%

COc1cc(Oc2ccccc2Cc2c(-c3ccccc3)oc3ccccc3c2=O)cc(OC)c1OC
inhibition at 10 µM (BMDM [1]): 40.3% | inhibition at 5 µM (BMDM [2]): 22.7%

CS(=O)(=O)c1ccc(Oc2ccccc2Cc2c(-c3ccccc3)oc3ccccc3c2=O)cc1
inhibition at 10 µM (BMDM [1]): 51.8% | inhibition at 5 µM (BMDM [2]): 23.2%

COc1ccc(O)c(Cc2c(-c3ccccc3)oc3ccccc3c2=O)c1
inhibition at 10 µM (BMDM [1]): 38.2% | inhibition at 5 µM (BMDM [2]): 36.5%

O=c1c(Cc2cc(Br)ccc2O)c(-c2ccccc2)oc2ccccc12
inhibition at 10 µM (BMDM [1]): 54.5% | inhibition at 5 µM (BMDM [2]): 22.7%

O=c1c(Cc2ccccc2Oc2ccc(O)cc2)c(-c2ccccc2)oc2ccccc12
inhibition at 10 µM (BMDM [1]): 55.3% | inhibition at 5 µM (BMDM [2]): 29.4%

O=c1c(Cc2ccccc2)c(-c2ccccc2)oc2ccccc12
inhibition at 10 µM (BMDM [1]): 30.6% | inhibition at 5 µM (BMDM [2]): 22.6%

O=c1c(Cc2ccccc2O)c(-c2ccc(-c3ccccc3)cc2)oc2ccccc12
inhibition at 10 µM (BMDM [1]): 69.3% | inhibition at 5 µM (BMDM [2]): 37.9%

O=c1c(Cc2cc(Br)ccc2O)c(-c2ccccc2)oc2ccc(Br)cc12
inhibition at 10 µM (BMDM [1]): -4.4% | inhibition at 5 µM (BMDM [2]): -8.26%
